Columns and labels:
[1] = target: recombinant Nm23-H1 (Homo sapiens, UniProt P15531); experiment: NDPK assay with recombinant Nm23-H1; assay type: biochemical; conditions: 5 ng recombinant Nm23-H1, incubated 10 minutes at room temperature, then 5 μM ADP for 1 minute
Description: NDPK assay was performed by incubating 5 ng of recombinant Nm23-H1 with each of test compounds (Examples 1 to 3) in NDPK assay buffer (20 mM HEPES, 3 mM MgCl2) at room temperature for 10 minutes, followed by reaction with 5 μM ADP for 1 minute.

[2] = tested on: MDA-MB-321 cells; experiment: 3D tumor spheroid model; assay type: cell-based; conditions: various concentrations, 14 days after treatment, FIG. 4
Description: The cancer growth inhibitory effect of administration of the compounds according to the present disclosure was evaluated using a 3D tumor spheroid model. The 3D tumor spheroid structure has characteristics similar to solid cancer under normal stress conditions because it is not easy to transfer nutrients into cancer cells.
Specifically, 7.5 K MDA-MB-321 cells were 3D-cultured in an ultra-low attachment (ULA) 96-well plate (Perkin Elmer) under a 2.5% Matrigel™ (BD Biosciences) condition. 5 days after 3D spheroid production, the cells were treated with various concentrations of the compound (#24) of Example 1 according to the present disclosure, and 14 days after the treatment, the cancer cell growth inhibitory effect of the compound was evaluated.

[3] = tested on: MDA-MB-321 cells; experiment: 3D tumor spheroid model, co-treatment with paclitaxel; assay type: cell-based; conditions: co-treated with paclitaxel, 14 days after treatment, FIG. 5
Description: In order to evaluate the effect of co-treatment with paclitaxel (PTX) which is used as a chemotherapeutic agent against triple negative breast cancer, the effect of co-treatment was evaluated using a 3D tumor spheroid model in a manner similar to Example 7.
Specifically, 7.5 K MDA-MB-321 cells were 3D-cultured in an ultra-low attachment (ULA) 96-well plate (Perkin Elmer) under a 2.5% Matrigel™ (BD Biosciences) condition. 5 days after 3D spheroid production, the cells were co-treated with the compound (B024) of Example 1 according to the present disclosure and paclitaxel in a concentration-dependent manner, and 14 days after the treatment, the cancer cell growth inhibitory effect of co-treatment was evaluated.

recombinant Nm23-H1, sequence (P15531 whole entry): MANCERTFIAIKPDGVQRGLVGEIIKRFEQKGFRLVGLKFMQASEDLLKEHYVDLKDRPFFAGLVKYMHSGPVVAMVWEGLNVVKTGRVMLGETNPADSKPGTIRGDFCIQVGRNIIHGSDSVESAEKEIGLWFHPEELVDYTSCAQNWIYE

SMILES	NDPK activity [1]	cancer cell growth in the 3D tumor spheroid model [2]	cancer cell growth in 3D tumor spheroid model, co-administration with paclitaxel [3]
COc1ccc(-c2cccc(C(O)c3ccc(OC)c(OC)c3)c2)cc1OC (centres unmarked) [Example 1, (3′,4′-dimethoxy-[1,1′-biphenyl]-3-yl)(3,4-dimethoxyphenyl)methanol]	2.8	significantly inhibited cancer cell growth	significantly inhibited cancer cell growth even at low concentrations
COc1ccc(Cc2cccc(-c3ccc(OC)c(OC)c3)c2)cc1OC [Example 2, 3′-(3,4-dimethoxybenzyl)-3,4-dimethoxy-1,1′-biphenyl]	1.4		
COc1ccc(C(=O)c2cccc(-c3ccc(OC)c(OC)c3)c2)cc1OC [Example 3, (3′,4′-dimethoxy-[1,1′-biphenyl]-3-yl)(3,4-dimethoxyphenyl)methanone]	1.7		
